Test results: patent US11059815B2, “Synthesis of small molecule histone deacetylase 6 degraders, compounds formed thereby, and pharmaceutical compositions containing them” (Wisconsin Alumni Research Foundation, priority 2018, dated 2021)

Assays:
[1] = tested on: IKZF1/3; experiment: Western blot of IKZFs in MM1S cells; assay type: cell-based, human
Method: FIGS. 10A and 10B are western blot analysis of MM1S cells treated with selected candidates from C4-lined series (FIG. 10A) and C5-lined series (FIG. 10B) for 6 h.
(§1) FIGS. 12A, 12B, and 12C are a series of western blots showing that degrader 12d selectively promotes HDAC6 degradation in MM1S cells.
As discussed before, pomalidomide and its analogues are known to activate CRBN's E3 ligase activity for the degradation of IKZFs. […] IKZFs regulate the expression of interferon regulatory factor 4 (IRF4) and c-Myc to affect the proliferation of multiple myeloma (MM). […] PROTACs with IKZF degradation activity have been reported in a number of cases and the IKZFs are often considered as “off-targets” during the development of these PROTACs. The results presented here indicate that the IKZF degradation activity can be impacted by the linker position and the functional group next to the phthalimide ring. In the studies, the triazole ring linked to C4 position likely contributed to the induced interaction between CRBN and IKZFs.
To evaluate the activity and selectivity of 12d, a full dose response experiment was performed with compound concentrations ranging from 0.3 nM to 10 μM in MM1S cells (FIG. 12A) for several HDACs, IKZFs, and Ac-tubulin. […] Degrader 12d reduced HDAC6 protein content at as low as 3 nM and achieved maximal effects around 30 nM. […] See Douglass et al. 2013, supra. The degradation of IKZFs started from 30 nM and was dose-dependent. It is interesting to see the more efficient degradation of HDAC6, which requires the formation of ternary complex, than that of IKZFs, which only requires the formation of binary complex. In addition to the distinct mechanism, the different turnover rates of HDAC6 and IKZFs may also contribute to the observed results. The acetylated tubulin level was also dose-dependent. At higher concentrations (3 μM and 10 μM), tubulin acetylation was not […] in response to recovered HDAC6 expression by “hook effect”. The elevated tubulin acetylation at higher concentrations was likely due to the combination of HDAC6 degradation and HDAC6 inhibition.
To probe the efficiency of 12d, MM1S was treated with 100 nM 12d and the change of HDAC6 protein level was monitored by time. The HDAC6 degradation started around 1 h and reached maximal degradation effect at 4 h. The degradation of IKZFs was only observed after 4 h. Meanwhile, HDAC1 was not affected and the acetylation of tubulin was accumulated by time. […] HDAC6 expression was monitored for 48 h. […]
When the cells reached 90% confluence, they were harvested and plated 1×10^6 cells per well in 6-well plate. […] Protein concentration was measured by using the Pierce BCA protein assay (Thermo Fisher Scientific). […]

[2] = tested on: acetylated histone H3; experiment: Western blot of acetylated histone H3 in MM1S cells; assay type: cell-based, human
Source text: as §1
To further examine the selectivity of the new generation of HDAC6 degraders, compound 12d was compared to SAHA, Next-A, degrader 1 and pan-inhibitor 2 for change of acetylated a-tubulin and acetylated histone H3.
When the cells reached 90% confluence, they were harvested and plated 1×10^6 cells per well in 6-well plate. After overnight seeding, the cells were treated with a solution of compounds or vehicle in culture medium. The culture medium was removed after treatment and then washed twice with cold PBS. To obtain whole cell lysate, all cells were treated with RIPA lysis buffer (25 mM Tris, pH 7-8, 150 mM NaCl, 0.1% SDS, 0.5% sodium deoxycholate, 1% Triton X-100, protease inhibitor cocktail (Roche, 1 tablet per 10 mL) and 1 mM PMSF) on ice for 10 minutes. Supernatant was collected after spinning down at 16,000 g at 4° C. for 15 minutes. Protein concentration was measured by using the Pierce BCA protein assay (Thermo Fisher Scientific). […] The Immunoblot was generated by ChemiDoc MP Imaging Systems (Bio-Rad) and analyzed by Image J software (only available for download online at https://imagej.net/Downloads). […]

CCCCN(Cc1ccc(C(=O)NO)cc1)C(=O)Nc1ccc(OCCCCCn2cc(CNc3cccc4c3C(=O)N(C3CCC(=O)NC3=O)C4=O)nn2)cc1 (centres unmarked) [Compound 12d, 4-((1-butyl-3-(4-((5-(4-(((2-(2,6-dioxopiperidin-3-yl)-1,3-dioxoisoindolin-4-yl)amino)methyl)-1H-1,2,3-triazol-1-yl)pentyl)oxy)phenyl)ureido)methyl)-N-hydroxybenzamide]
IKZF3 recovery after wash-out ([1]; 100 nM for 6 h, washed with PBS, after 12 h): quickly recovered | induced degradation of IKZF1/3 ([1]; 100 nM, 6 h, MM1S): retained the induced degradation | time after which degradation of IKZFs was observed ([1]; 100 nM, MM1S): > 4 h | concentration from which degradation of IKZFs started ([1]; 12d dose response 0.3 nM to 10 μM, MM1S): ≥ 30 nM | change of acetylated histone H3 [2]: No increase
